Ki data for 18 compounds are collected here from patent US8501446B2 (Vertex Pharmaceuticals Incorporated, priority 2004, dated 2013).

Common to all, as to format: biochemical
Assay [1] has as its target T1, full length Aurora-A (AA 1-403) (Homo sapiens, UniProt O14965).
T1 construct: full length Aurora-A (AA 1-403)
T1 sequence (O14965 1-403): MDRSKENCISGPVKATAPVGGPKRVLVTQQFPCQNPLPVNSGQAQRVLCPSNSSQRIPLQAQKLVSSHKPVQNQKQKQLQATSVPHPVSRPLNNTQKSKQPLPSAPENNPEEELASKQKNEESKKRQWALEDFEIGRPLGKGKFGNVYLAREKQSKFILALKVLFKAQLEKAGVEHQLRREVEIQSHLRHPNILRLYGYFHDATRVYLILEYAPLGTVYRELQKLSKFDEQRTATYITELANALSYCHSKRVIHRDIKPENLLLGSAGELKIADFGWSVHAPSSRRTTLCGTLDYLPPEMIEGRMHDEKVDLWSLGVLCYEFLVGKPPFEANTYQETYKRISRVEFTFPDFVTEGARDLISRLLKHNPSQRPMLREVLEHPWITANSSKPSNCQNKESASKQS
As to the kind of experiment: Aurora-A inhibition assay, standard coupled enzyme system. The conditions noted are these: average Ki if more than one value determined.

The next assay concerns the target Aurora-B (Homo sapiens, UniProt Q96GD4). The experiment in a line: Aurora-B inhibition assay, radioactive assay. The conditions noted are these: average Ki if more than one value determined. On the procedure: Compounds were screened for their ability to inhibit JAK3 using a standard radioactive enzyme assay. 1.5 μL/well of a DMSO stock containing serial dilutions of a compound of the present invention (concentrations ranging from 667 μM to 46 nM) was placed in a 96 well polycarbonate plate. 50 μL per well of kinase buffer (100 mM HEPES (pH 7.4), 10 mM MgCl2, 25 mM NaCl, 1 mM DTT, and 0.01% bovine serum albumin (BSA)) containing 2 μM poly(Glu)4Tyr and 10 μM ATP was also added to the plate. To initiate the reaction, 50 μL kinase buffer containing 2 nM JAK3 enzyme was added. Final ATP concentration was 5 μM [γ-^33P] ATP (200 μCi ^33P ATP/μmol ATP (Perkin Elmer, Cambridge, Mass.). After 20 minutes at room temperature (25° C.), the reaction was stopped by adding 50 μL 20% trichloroacetic acid (TCA)/0.4 mM ATP to each well. The entire content of each well was then transferred to a 96 well glass fiber filter plate using a TomTek Cell Harvester. After washing, 60 μL scintillation fluid was added and ^33P incorporation detected using a Perkin Elmer TopCount. After removing mean background values for all of the data points the data was fit using Prism software to obtain a Ki(app). Inhibition of JAK2 was measured as above except that final poly(Glu)4Tyr concentration was 15 μM and final ATP concentration was 12 μM.
Some compounds were screened for their ability to inhibit ROCK using a standard radioactive enzyme assay. Assays were carried out in a solution containing 100 mM HEPES (pH 7.5), 10 mM MgCl2, 25 mM NaCl, 2 mM DTT, and 1.5% DMSO. Final substrate concentrations in the assay were 13 μM [γ-^33P] ATP (25 mCi ^33P ATP/mmol ATP, Perkin Elmer, Cambridge, Mass./Sigma Chemicals, St Louis, Mo.) and 27 μM Myelin Basic Protein (MBP). Final enzyme concentration in the assay was 5 nM ROCK. Assays were carried out at room temperature. 1.5 μl of DMSO stock containing serial dilutions of the compound of the present invention (concentrations ranging from 10 μM to 2.6 nM) was placed in a 96 well plate. 50 μl of Solution 1 (100 mM HEPES (pH 7.5), 10 mM MgCl2, […]) was added to the plate. The reaction was initiated by addition of 50 μl of Solution 2 (100 mM HEPES (pH 7.5), 10 mM MgCl2, 4 mM DTT, […] and 10 nM ROCK). After 2 hours the reaction was quenched with 50 μL of 30% trichloroacetic acid (TCA, Fisher) containing 9 mM ATP. Transfer of 140 μL of the quenched reaction to a glass fiber filter plate (Corning, Cat. No. 3511) was followed by washing 3 times with 5% TCA. 50 μL of Optima Gold scintillation fluid (Perkin Elmer) was added and the plates were counted on a Top Count (Perkin Elmer). After removing mean background values for all of the data points the data was fit using Prism software to obtain a Ki(app).
An assay stock buffer solution was prepared containing all of the reagents listed above with the exception of ATP and the test compound of interest. The assay stock buffer solution (60 μl) was incubated in a 96 well plate with 2 μl of the test compound of interest at final concentrations spanning 0.002 μM to 30 μM at 30° C. for 10 min. Typically, a 12 point titration was conducted by preparing serial dilutions (from 1 mM compound stocks) with DMSO of the test compounds in daughter plates. The reaction was initiated by the addition of 5 μl of ATP (final concentration 200 μM). Rates of reaction were obtained using a Molecular Devices Spectramax plate reader (Sunnyvale, Calif.) over 10 min at 30° C. The Ki values were determined from the rate data as a function of inhibitor concentration using computerized nonlinear regression (Prism 3.0, Graphpad Software, San Diego, Calif.). Aurora-C activity was screened in a similar manner using Aurora-C protein. Aurora-B activity was screened using a radioactive assay, such as described in Examples 1 and 2, but using Aurora-B protein.

For another assay, the target named is T2, ROCK I (AA 6-553) (Homo sapiens, UniProt Q13464).
T2 construct: ROCK I (AA 6-553)
T2 sequence (Q13464 6-553, species assumed): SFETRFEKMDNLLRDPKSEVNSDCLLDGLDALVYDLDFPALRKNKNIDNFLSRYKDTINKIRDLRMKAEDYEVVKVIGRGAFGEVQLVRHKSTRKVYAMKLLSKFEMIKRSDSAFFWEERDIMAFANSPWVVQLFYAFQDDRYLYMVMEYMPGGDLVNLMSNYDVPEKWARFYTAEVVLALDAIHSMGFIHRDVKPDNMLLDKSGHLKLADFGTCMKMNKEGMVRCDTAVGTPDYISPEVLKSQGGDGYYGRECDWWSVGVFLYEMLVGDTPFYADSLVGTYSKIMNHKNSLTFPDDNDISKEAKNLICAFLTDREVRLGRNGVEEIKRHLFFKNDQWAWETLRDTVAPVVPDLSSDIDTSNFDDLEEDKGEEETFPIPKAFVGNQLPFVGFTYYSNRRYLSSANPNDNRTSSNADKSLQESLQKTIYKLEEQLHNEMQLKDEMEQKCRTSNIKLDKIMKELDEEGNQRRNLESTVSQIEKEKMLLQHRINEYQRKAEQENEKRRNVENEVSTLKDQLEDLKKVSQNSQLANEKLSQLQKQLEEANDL
The experiment in a line: ROCK inhibition assay, standard coupled enzyme system ("Enzyme"). The conditions noted are these: enzyme-linked assay. In a few lines:
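ROCK I (AA 6-553) at 45 nM and 30 °C with 45 μM ATP and 200 μM peptide, in 100 mM HEPES pH 7.5, 10 mM MgCl2, 25 mM NaCl, 2 mM DTT, 1.5% DMSO. ADP output read by a PK/LDH coupled system: 2.5 mM PEP, 350 μM NADH, 30 μg/ml PK, 10 μg/ml LDH.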

A further assay addresses JAK2 (Homo sapiens, UniProt O60674). As to the kind of experiment: JAK2 inhibition assay (radioactive enzyme assay, as for JAK3). The conditions noted are these: average Ki if more than one value determined. The method in brief: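 Both kinases: poly(Glu)4Tyr substrate in 100 mM HEPES pH 7.4, 10 mM MgCl2, 1 mM DTT. Run 20 min at 25° C, TCA stop, filter-bound ³³P counted, Ki(app) fitted after background subtraction. JAK3: final [γ-³³P]ATP 5 μM, enzyme added as 2 nM solution. JAK2: final poly(Glu)4Tyr 15 μM, final ATP 12 μM.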

The next assay deals with T3, JAK3 (Homo sapiens, UniProt P52333).
T3 sequence (P52333 1-1124): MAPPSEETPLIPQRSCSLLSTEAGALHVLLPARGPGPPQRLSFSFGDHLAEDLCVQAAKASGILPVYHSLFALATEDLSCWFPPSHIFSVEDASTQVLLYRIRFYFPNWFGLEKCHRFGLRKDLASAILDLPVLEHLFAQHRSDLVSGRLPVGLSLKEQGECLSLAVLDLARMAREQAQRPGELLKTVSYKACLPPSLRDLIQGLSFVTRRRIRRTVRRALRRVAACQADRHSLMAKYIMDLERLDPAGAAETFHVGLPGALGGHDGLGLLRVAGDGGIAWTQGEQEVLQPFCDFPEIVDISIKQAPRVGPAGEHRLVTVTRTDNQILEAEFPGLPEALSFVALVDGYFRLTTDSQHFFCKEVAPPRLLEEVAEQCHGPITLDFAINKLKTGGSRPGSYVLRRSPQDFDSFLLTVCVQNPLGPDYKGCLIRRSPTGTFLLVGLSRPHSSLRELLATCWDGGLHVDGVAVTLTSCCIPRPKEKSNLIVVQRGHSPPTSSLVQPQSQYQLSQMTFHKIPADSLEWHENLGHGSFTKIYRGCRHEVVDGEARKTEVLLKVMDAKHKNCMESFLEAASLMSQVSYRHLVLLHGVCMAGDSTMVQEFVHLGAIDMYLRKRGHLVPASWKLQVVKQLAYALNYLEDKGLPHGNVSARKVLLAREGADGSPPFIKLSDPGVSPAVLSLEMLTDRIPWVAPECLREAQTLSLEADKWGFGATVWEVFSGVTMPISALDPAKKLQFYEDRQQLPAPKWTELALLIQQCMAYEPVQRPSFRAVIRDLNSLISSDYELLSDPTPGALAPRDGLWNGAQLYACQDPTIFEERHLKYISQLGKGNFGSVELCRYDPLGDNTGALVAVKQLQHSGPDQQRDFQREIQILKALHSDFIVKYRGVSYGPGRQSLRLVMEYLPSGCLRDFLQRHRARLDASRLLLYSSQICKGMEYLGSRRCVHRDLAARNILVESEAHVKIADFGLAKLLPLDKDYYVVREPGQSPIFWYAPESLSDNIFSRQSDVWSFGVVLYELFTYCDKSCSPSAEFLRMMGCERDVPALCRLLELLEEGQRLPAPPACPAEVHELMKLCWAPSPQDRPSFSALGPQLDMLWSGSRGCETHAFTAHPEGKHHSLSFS
As to the kind of experiment: JAK3 inhibition assay (standard radioactive enzyme assay). The conditions noted are these: average Ki if more than one value determined.

Chain of JAK2 (O60674 whole entry, species assumed): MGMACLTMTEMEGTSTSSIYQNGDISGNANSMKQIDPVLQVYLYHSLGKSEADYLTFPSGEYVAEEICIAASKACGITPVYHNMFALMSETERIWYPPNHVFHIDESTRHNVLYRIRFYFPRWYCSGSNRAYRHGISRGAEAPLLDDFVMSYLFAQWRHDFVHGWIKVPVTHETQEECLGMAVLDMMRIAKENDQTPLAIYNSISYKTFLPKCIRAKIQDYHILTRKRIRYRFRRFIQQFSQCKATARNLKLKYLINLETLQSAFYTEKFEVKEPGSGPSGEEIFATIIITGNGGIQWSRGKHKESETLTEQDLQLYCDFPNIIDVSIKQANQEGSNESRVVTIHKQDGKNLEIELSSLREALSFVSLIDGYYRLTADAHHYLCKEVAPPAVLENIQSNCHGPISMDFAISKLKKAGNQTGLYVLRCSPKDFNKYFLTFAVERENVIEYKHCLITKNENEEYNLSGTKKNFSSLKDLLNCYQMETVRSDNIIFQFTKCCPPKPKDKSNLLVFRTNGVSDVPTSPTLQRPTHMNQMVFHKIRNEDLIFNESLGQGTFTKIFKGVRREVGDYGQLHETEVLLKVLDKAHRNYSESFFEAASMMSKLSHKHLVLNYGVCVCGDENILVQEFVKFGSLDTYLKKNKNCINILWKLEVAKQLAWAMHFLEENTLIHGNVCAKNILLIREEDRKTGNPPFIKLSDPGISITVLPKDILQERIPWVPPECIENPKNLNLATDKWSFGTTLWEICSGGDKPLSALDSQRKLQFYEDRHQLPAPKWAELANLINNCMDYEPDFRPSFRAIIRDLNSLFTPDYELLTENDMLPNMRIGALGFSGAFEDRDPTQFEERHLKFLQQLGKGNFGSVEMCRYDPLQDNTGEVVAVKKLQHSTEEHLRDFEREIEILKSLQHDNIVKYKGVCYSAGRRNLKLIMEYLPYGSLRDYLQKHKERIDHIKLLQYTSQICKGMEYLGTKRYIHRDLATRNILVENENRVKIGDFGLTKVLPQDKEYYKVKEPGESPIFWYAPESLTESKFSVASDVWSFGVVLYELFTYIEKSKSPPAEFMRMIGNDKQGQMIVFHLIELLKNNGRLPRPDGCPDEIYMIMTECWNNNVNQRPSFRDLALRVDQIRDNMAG
Chain of Aurora-B (Q96GD4 whole entry): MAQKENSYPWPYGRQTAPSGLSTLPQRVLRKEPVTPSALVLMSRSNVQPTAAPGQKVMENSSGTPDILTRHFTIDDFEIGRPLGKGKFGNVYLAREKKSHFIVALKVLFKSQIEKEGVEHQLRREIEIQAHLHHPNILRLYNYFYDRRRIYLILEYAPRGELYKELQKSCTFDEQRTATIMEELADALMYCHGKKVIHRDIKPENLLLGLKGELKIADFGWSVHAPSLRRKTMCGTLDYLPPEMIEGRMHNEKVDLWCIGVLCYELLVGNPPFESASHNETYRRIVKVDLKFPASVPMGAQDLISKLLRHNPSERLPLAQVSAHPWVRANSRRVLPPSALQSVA

For the compound `CCc1cnc(Cl)nc1-c1c[nH]c2ncc(Cl)cc12` [Compound 428], the results for the Ki (in assay [1]; on Aurora-B; at ROCK I (AA 6-553)) were less than 500 nM, 500 to 5000 nM and 500 to 5000 nM, respectively.
As for `C#CCNc1nc(-c2c[nH]c3ncc(Cl)cc23)ncc1F` [Compound 382], the results for the Ki (in assay [1]; on Aurora-B) were less than 500 nM and 500 to 5000 nM, respectively.
The matching figures for `C[C@H](Nc1nc(-c2c[nH]c3ncc(Cl)cc23)ncc1F)C(=O)NCCc1nc2ccccc2[nH]1` [Compound 459]: 500 to 5000 nM and 500 to 5000 nM.
The matching figures for `C[C@H](Nc1nc(-c2c[nH]c3ncc(Cl)cc23)ncc1F)C(=O)NCCCN1CCCC1=O` [Compound 460]: 500 to 5000 nM and 500 to 5000 nM.
The matching figures for `CCCC[C@H](C)NC(=O)[C@H](C)Nc1nc(-c2c[nH]c3ncc(Cl)cc23)ncc1F` [Compound 463]: less than 500 nM and 500 to 5000 nM.
Consider `C[C@H](Nc1cc(NCCN(C)C)nc(-c2c[nH]c3ncc(Cl)cc23)n1)C(=O)NCC(F)(F)F` [Compound 419], for which the Ki (in assay [1]; on Aurora-B) was 500 to 5000 nM throughout.
Take `COC(=O)COc1cccc([C@H](C)Nc2nc(-c3c[nH]c4ncc(Cl)cc34)ncc2F)c1` [Compound 335]: the Ki (in assay [1]; at Aurora-B) was less than 500 nM in each case.
As for `C[C@H](Nc1nc(-c2c[nH]c3ncc(Cl)cc23)ncc1F)C(=O)NCCSCc1c(Cl)cccc1Cl` [Compound 462], the Ki (in assay [1]; at Aurora-B) was 500 to 5000 nM in each case.
As to `CC(=O)N1[C@H](C)CN(c2cccc(-c3c[nH]c4ncc(NC(=O)c5ccccc5)cc34)n2)C[C@@H]1C` [Compound 156], the Ki in assay [1] is 500 to 5000 nM; at JAK2, less than 500 nM; on ROCK I (AA 6-553), less than 500 nM; at JAK3 it was less than 500 nM.
`C[C@@H](Nc1cccc(-c2c[nH]c3ncc(Cl)cc23)n1)c1ccc(F)cc1` [Compound 131]: the Ki in assay [1] was less than 500 nM; on JAK2, less than 500 nM; on ROCK I (AA 6-553), 500 to 5000 nM; at JAK3, less than 500 nM.
`CC(=O)N1[C@H](C)CN(c2cc(C#N)cc(-c3c[nH]c4ncc(Cl)cc34)n2)C[C@@H]1C` [Compound 98]: the Ki in assay [1] is less than 500 nM; on JAK2, less than 500 nM; on ROCK I (AA 6-553) it was 500 to 5000 nM; on JAK3, less than 500 nM.
`CC(=O)N1[C@H](C)CN(c2cccc(-c3c[nH]c4ncc(NC(=O)CCCN5CCNCC5)cc34)n2)C[C@@H]1C` [Compound 152]: the Ki in assay [1] was 500 to 5000 nM; at JAK2 it was less than 500 nM; on ROCK I (AA 6-553), 500 to 5000 nM; on JAK3, less than 500 nM.
For the compound `O=C(O)c1ccc(NCc2ccccc2)nc1-c1c[nH]c2ncc(Cl)cc12` [Compound 44], the Ki in assay [1] is less than 500 nM; on JAK2 it was 500 to 5000 nM; on ROCK I (AA 6-553) it was 500 to 5000 nM; at JAK3, 500 to 5000 nM.
For the compound `CC(=O)N1[C@H](C)CN(c2nc(-c3c[nH]c4ncc(Cl)cc34)cc(C)c2C#N)C[C@@H]1C` [Compound 79], the Ki was less than 500 nM in assay [1], less than 500 nM at JAK2, 500 to 5000 nM at ROCK I (AA 6-553) and less than 500 nM at JAK3.
As for `CC(=O)N1[C@H](C)CN(c2cccc(-c3c[nH]c4ncc(NC(=O)C5CCCCC5)cc34)n2)C[C@@H]1C` [Compound 158], the Ki is 500 to 5000 nM in assay [1], less than 500 nM at JAK2, 500 to 5000 nM at ROCK I (AA 6-553) and less than 500 nM at JAK3.
For the compound `OC[C@H](Nc1cccc(-c2c[nH]c3ncc(Cl)cc23)n1)c1ccccc1` [Compound 100], the Ki is less than 500 nM in assay [1], less than 500 nM at JAK2, 500 to 5000 nM at ROCK I (AA 6-553) and less than 500 nM at JAK3.
As for `C[C@H](Nc1nc(-c2c[nH]c3ncc(Cl)cc23)ncc1F)C(=O)NCCOc1ccccc1` [Compound 457], the Ki (in assay [1]; at Aurora-B) was 500 to 5000 nM in each case.
As to `CCOC(=O)Nc1cnc2[nH]cc(-c3cccc(N4C[C@@H](C)N(C(C)=O)[C@@H](C)C4)n3)c2c1` [Compound 70], the Ki was 500 to 5000 nM in assay [1], less than 500 nM at JAK2, 500 to 5000 nM at ROCK I (AA 6-553) and less than 500 nM at JAK3.

Broadly, the Ki is the dissociation constant of the complex between target and ligand, obtained from inhibition or displacement.
